Measurements from article PMC9814779, “A triple farnesoid X receptor and peroxisome proliferator-activated receptor α/δ activator reverses hepatic fibrosis in diet-induced NASH in mice” (Communications Chemistry, 2020).

Test system: HEK293T and U2OS cells
Assay: Multiplex high-content live-cell toxicity assay
Format: cell-based
Details: seven concentrations between 100 nM and 100 µM; 2, 12 and 24 h
Method: Before proof-of-concept in vivo evaluation, we profiled stability and cytotoxicity of the triple modulator 41 in vitro. […] To determine cytotoxicity, we employed a multiplex high-content life-cell imaging screen[24] on HEK293T and U2OS cells. For this, the cells were treated with fluorescent probes to detect Annexin V as apoptosis marker (Annexin V Alexa488), dead cells (Yo-Pro3), and DNA/nucleus (Hoechst33342). Cells were then incubated with 41, OCA, or elafibranor at seven concentrations between 100 nM and 100 µM, and cell health was determined by fluorescence imaging after 2, 12, and 24 h (Fig. 6g–i and Supplementary Fig. 5).
Supplementary Methods for in Vitro Characterization
Cytotoxicity was assessed in a high content screen on two different cell lines, HEK293T (ATCC® CRL-1573™) and U2OS (ATCC®HTB-96™), essentially as described previously6. In brief, cells were cultured in DMEM plus L-Glutamine (high glucose) supplemented with 10 % FBS (Gibco) and Penicillin/Streptomycin (Gibco). […]
After 2 h, 12 h and 24 h, cellular shape and fluorescence was analyzed on an automated, high-content confocal microscope (CQ1, Yokogawa). […]
50 ms, 40%; bright field, 300ms, 100% transmission, one centered field per well, 7 z stacks per well with 55 µm spacing. Images were analyzed with the Pathfinder software (Yokogawa). Cells were detected and gated as previously described6. […]
The solubilized test compound (5 μL, final concentration 10 μM in phosphate buffer (0.1 M, pH 7.4)) was preincubated at 37 °C in 432 μL of phosphate buffer (0.1 M, pH 7.4) together with a 50 μL NADPH regenerating system (30 mM glucose-6-phosphate, 4 U/mL glucose-6-phosphate dehydrogenase, 10 mM NADP, 30 mM MgCl2). […] The supernatants were analyzed and test compound was quantified by HPLC: mobile phase: MeOH 83%/H2O 17%/formic acid 0.1%; flow-rate: 1 mL/min; stationary phase: MultoHigh Phenyl phase, 5 μm, 250×4, precolumn, phenyl, 5 μm, 20×4; detection wavelength: 330 and 254 nm; injection volume: 50 μL. […]

Structure (SMILES)	cytotoxicity (cell health, apoptosis, necrosis, lysis)
CC[C@H]1[C@@H](O)[C@@H]2[C@H](CC[C@]3(C)[C@@H]([C@H](C)CCC(=O)O)CC[C@@H]23)[C@@]2(C)CC[C@@H](O)C[C@@H]12 [OCA, 6α-ethylchenodeoxycholic acid, reference compound]	non-toxic up to 100 µM concentration over 24 h
CC(C)(C)c1ccc(C(=O)Nc2cccc(CCC(=O)O)c2)c(NC(=O)c2ccc(-c3ccco3)cc2)c1 [compound 41, 3-(3-[4-{tert-Butyl}-2-{4-(2-furyl)}benzamido]phenyl)propanoic acid]	no notable toxic effects up to high 100 µM concentration
